# Read-outs that look alike come from different tables or passages of the source.
# Legend:
# ATF6 = test: ERSE ATF6-luciferase reporter assay (thapsigargin-induced ER stress); type: cell-based, human; conditions: thapsigargin-induced ER stress, U2-OS ATF6 luc reporter cells; for inhibition at 1 µM: 8 h; for inhibition at 1 µM / Inh. ATF6-Luc @ 1 μM [%]: 8 hr
# [1] = In vitro microsomal stability, human liver microsomes; type: in vitro ADME; conditions: for half-life at 1 μM: human, read-out: T1/2 @ hLM; for Rem. @ hLM (%): remaining fraction after 30 min, 1 μM compound, 0.5 mg/mL human liver microsomes, 1 mM NADPH
# Experimental: (§1) Compounds were incubated at a final concentration of 1 μM with 0.5 mg/mL human liver microsomes (hLM) (#HMMCPL; Thermo), mouse liver microsomes (mLM) (#MSMCPL; Thermo) or rat liver microsomes (rLM) (#RTMCPL; Thermo) and 1 mM reduced dihydronicotinamide-adenine dinucleotide phosphate (NADPH) (#N1630; Sigma) in 100 mM phosphate buffer (pH 7.4) at 37° C. The reactions were terminated at 0, 5, 15 and 30 min by the addition of cold acetonitrile containing 50 ng/mL propranolol as an internal standard. […] Verapamil hydrochloride (#V4369 Aldrich) was used as a positive control in all studies.
# [2] = In vitro microsomal stability, mouse liver microsomes; type: in vitro ADME; conditions: for Rem. @ mLM (%): remaining fraction after 30 min, 1 μM compound, 0.5 mg/mL mouse liver microsomes, 1 mM NADPH
# Experimental: as §1
# [3] = In vitro microsomal stability, rat liver microsomes; type: in vitro ADME; conditions: for Rem. @ rLM (%): remaining fraction after 30 min, 1 μM compound, 0.5 mg/mL rat liver microsomes, 1 mM NADPH
# Experimental: as §1
# [4] = Kinetic solubility (nephelometry); type: physicochemical; conditions: aqueous buffer, kinetic from dmso stock; PBS pH 7.4, 1% DMSO, 1 hour at 37° C., light scattering at 625 nm
# Experimental: Concentration (μM) was then calculated by segmental regression. Amiodarone (#A8423 Aldrich) was used as positive control.
# [5] = Homo sapiens, U2OS, 1 μM test compound, read-out: Inh. ATF6-Luc @ 1 μM [%]
# [6] = Homo sapiens, U2OS, dose-response 30 μM to 1 nM, read-out: IC50 ATF6-Luc reporter
# [7] = pH 7.4, intrinsic clearance, human liver microsomes, read-out: Clint @ hLM
# [8] = mouse, mouse liver microsomes, pH 7.4, read-out: T1/2 @ mLM
# [9] = pH 7.4, intrinsic clearance, mouse liver microsomes, read-out: Clint @ mLM
# [10] = pH 7.4, intrinsic clearance, rat liver microsomes, read-out: Clint @ rLM
# [11] = rat, rat liver microsomes, pH 7.4, read-out: T1/2 @ rLM
# [12] = dose-response 30 μM to 1 nM, read-out: IC50 ATF6-Luc reporter
IC50 (ATF6; [6]),Compound,inhibition at 1 µM (ATF6; [5]),further results
< 1 µM,"CCC(c1ccc(C(F)(F)F)cc1C(F)(F)F)n1cc(NC(=O)c2cc(-c3ccccn3)on2)cn1 (stereo not drawn) [Compound 1, N-(1-(1-(2,4-bis(trifluoromethyl)phenyl)propyl)-1H-pyrazol-4-yl)-5-(pyridin-2-yl)isoxazole-3-carboxamide]",25 to 50%,"half-life at 1 μM ([1]; human liver microsomes, pH 7.4): 67.7 min; microsomal CLint at 1 μM [1, 7]: 20.5 µL/min/mg; Rem. @ hLM (%) [1]: 71.4%; half-life at 1 μM [2, 8]: 35.1 min; microsomal CLint at 1 μM [2, 9]: 39.5 µL/min/mg; Rem. @ mLM (%) [2]: 54.8%; microsomal CLint at 1 μM [3, 10]: 42.7 µL/min/mg; half-life at 1 μM [3, 11]: 32.4 min; Rem. @ rLM (%) [3]: 51.8%; solubility kinetic at 1 h [4]: 2.7 µM"
1 to 10 µM,"CC(c1ccc(C(F)(F)F)cc1C(F)(F)F)n1cc(NC(=O)c2cc(-c3cccs3)on2)cn1 (stereo not drawn) [Compound 9, N-(1-(1-(2,4-bis(trifluoromethyl)phenyl)-ethyl)-1H-pyrazol-4-yl)-5-(thiophen-2-yl)isoxazole-3-carboxamide]",< 25%,solubility kinetic at 1 h [4]: 8.9 µM
> 10 µM,"O=C(Nc1cnn(C2CCc3ccccc32)c1)c1cc(-c2ccco2)on1 (stereo not drawn) [Compound 19, N-(1-(2,3-dihydro-1H-inden-1-yl)-1H-pyrazol-4-yl)-5-(furan-2-yl) isoxazole-3-carboxamide]",< 25%,solubility kinetic at 1 h [4]: 9.37 µM
1 to 10 µM,"Cc1ccc(-c2cc(C(=O)Nc3cnn(Cc4ccc(C(F)(F)F)cc4C(F)(F)F)c3)no2)o1 [Compound 22, N-(1-(2,4-bis(trifluoromethyl)benzyl)-1H-pyrazol-4-yl)-5-(5-methylfuran-2-yl)isoxazole-3-carboxamide]",< 25%,"half-life at 1 μM ([1]; human liver microsomes, pH 7.4): 6.5 min; microsomal CLint at […], 1 µM [1, 7]: 212 µL/min/mg; Rem. @ hLM (%) [1]: 3.7%; half-life at […], 1 µM [2, 8]: 6.1 min; microsomal CLint at […], 1 µM [2, 9]: 228 µL/min/mg; Rem. @ mLM (%) [2]: 3.3%; microsomal CLint at […], 1 µM [3, 10]: 204 µL/min/mg; half-life at […], 1 µM [3, 11]: 6.8 min; Rem. @ rLM (%) [3]: 4.5%"
> 10 µM,"C[C@H](c1ccc(C(F)(F)F)cc1C(F)(F)F)n1cc(NC(=O)c2ccccn2)cn1 [Compound 140, (R)—N-(1-(1-(2,4-bis(trifluoromethyl)phenyl)ethyl)-1H-pyrazol-4-yl)picolinamide]",< 25%,–
> 10 µM,"C[C@@H](c1ccc(C(F)(F)F)cc1C(F)(F)F)n1cc(NC(=O)c2cnccn2)cn1 [Compound 141, (S)—N-(1-(1-(2,4-bis(trifluoromethyl)phenyl)ethyl)-1H-pyrazol-4-yl)pyrazine-2-carboxamide]",< 25%,–
> 10 µM,"C[C@H](c1ccc(C(F)(F)F)cc1C(F)(F)F)n1cc(NC(=O)c2cnccn2)cn1 [Compound 142, (R)—N-(1-(1-(2,4-bis(trifluoromethyl)phenyl)ethyl)-1H-pyrazol-4-yl)pyrazine-2-carboxamide]",< 25%,–
> 10 µM,"O=C(Nc1cnn(C2CCc3ccccc32)c1)c1cc(-c2ccccn2)on1 (stereo not drawn) [Compound 143, N-(1-(2,3-dihydro-1H-inden-1-yl)-1H-pyrazol-4-yl)-5-(pyridin-2-yl)isoxazole-3-carboxamide]",< 25%,–
> 10 µM,"O=C(Nc1cnn(C2CCc3ccccc32)c1)c1nnc(-c2ccco2)s1 (stereo not drawn) [Compound 144, N-(1-(2,3-dihydro-1H-inden-1-yl)-1H-pyrazol-4-yl)-5-(furan-2-yl)-1,3,4-thiadiazole-2-carboxamide]",< 25%,–
> 10 µM,"O=C(Nc1cnn(Cc2c(Cl)cccc2Cl)c1)c1nnc(-c2ccccn2)s1 [Compound 145, N-(1-(2,6-dichlorobenzyl)-1H-pyrazol-4-yl)-5-(pyridin-2-yl)-1,3,4-thiadiazole-2-carboxamide]",< 25%,–
> 10 µM,"O=C(Nc1cnn(Cc2c(Cl)cccc2Cl)c1)c1cc(-c2ccccn2)on1 [Compound 146, N-(1-(2,6-dichlorobenzyl)-1H-pyrazol-4-yl)-5-(pyridin-2-yl)isoxazole-3-carboxamide]",< 25%,–
> 10 µM,"O=C(Nc1cnn(Cc2c(Cl)cccc2Cl)c1)c1cnc(-c2ccco2)s1 [Compound 147, N-(1-(2,6-dichlorobenzyl)-1H-pyrazol-4-yl)-2-(furan-2-yl)thiazole-5-carboxamide]",< 25%,–
> 10 µM,"O=C(Nc1cnn(Cc2c(Cl)cccc2Cl)c1)c1nnc(-c2ccco2)s1 [Compound 148, N-(1-(2,6-dichlorobenzyl)-1H-pyrazol-4-yl)-5-(furan-2-yl)-1,3,4-thiadiazole-2-carboxamide]",< 25%,–
> 10 µM,"O=C(Nc1cnn([C@@H]2CCc3ccccc32)c1)c1cc(-c2ccco2)on1 [Compound 149, (R)—N-(1-(2,3-dihydro-1H-inden-1-yl)-1H-pyrazol-4-yl)-5-(furan-2-yl)isoxazole-3-carboxamide]",< 25%,–
> 10 µM,"O=C(Nc1cnn([C@H]2CCc3ccccc32)c1)c1cc(-c2ccco2)on1 [Compound 150, (S)—N-(1-(2,3-dihydro-1H-inden-1-yl)-1H-pyrazol-4-yl)-5-(furan-2-yl)isoxazole-3-carboxamide]",< 25%,–
> 10 µM,"O=C(Nc1cnn(Cc2ccc(C(F)(F)F)cc2C(F)(F)F)c1)c1nnc(-c2ccccn2)o1 [Compound 151, N-(1-(2,4-bis(trifluoromethyl)benzyl)-1H-pyrazol-4-yl)-5-(pyridin-2-yl)-1,3,4-oxadiazole-2-carboxamide]",< 25%,–
–,C[C@@H](c1ccc(C(F)(F)F)cc1C(F)(F)F)n1cc(NC(=O)c2nnc(-c3cnccn3)s2)cn1 [Compound 153],–,"inhibition at 1 µM (ATF6; Homo sapiens, U2OS, read-out: Inh. ATF6-Luc @ 1 μM [%], 1 μM test compound): < 25%; IC50 (ATF6; Homo sapiens, U2OS, read-out: IC50 ATF6-Luc reporter [μM], dose-response 30 μM to 1 nM): > 10 µM"
< 1 µM,"C[C@H](c1ccc(C(F)(F)F)cc1C(F)(F)F)n1cc(NC(=O)c2nnc(-c3ccncn3)s2)cn1 [Compound 156, (R)—N-(1-(1-(2,4-bis(trifluoromethyl)phenyl)ethyl)-1H-pyrazol-4-yl)-5-(pyrimidin-4-yl)-1,3,4-thiadiazole-2-carboxamide]",25 to 50%,–
> 10 µM,"C[C@@H](c1ccc(C(F)(F)F)cc1C(F)(F)F)n1cc(NC(=O)c2nnc(-c3ccncn3)s2)cn1 [Compound 157, (S)—N-(1-(1-(2,4-bis(trifluoromethyl)phenyl)ethyl)-1H-pyrazol-4-yl)-5-(pyrimidin-4-yl)-1,3,4-thiadiazole-2-carboxamide]",< 25%,–
> 10 µM,"C[C@H](c1ccc(C(F)(F)F)cc1C(F)(F)F)n1cc(NC(=O)c2nnc(-c3ccco3)s2)cn1 [Compound 160, (R)—N-(1-(1-(2,4-bis(trifluoromethyl)phenyl)ethyl)-1H-pyrazol-4-yl)-5-(furan-2-yl)-1,3,4-thiadiazole-2-carboxamide]",< 25%,–
< 1 µM,"C[C@@H](c1ccc(C(F)(F)F)cc1C(F)(F)F)n1cc(NC(=O)c2nnc(-c3ccco3)s2)cn1 [Compound 161, (S)—N-(1-(1-(2,4-bis(trifluoromethyl)phenyl)ethyl)-1H-pyrazol-4-yl)-5-(furan-2-yl)-1,3,4-thiadiazole-2-carboxamide]",25 to 50%,–
–,Ceapin-A4 [reference compound],–,Inh. ATF6-Luc @ 1 μM [%] (ATF6; 1 μM test compound): + (+ refers to <25% inhibition at 1 μM); IC50 (ATF6; [12]): > 10 µM
–,Ceapin-A8 [reference compound],–,Inh. ATF6-Luc @ 1 μM [%] (ATF6; 1 μM test compound): + (+ refers to <25% inhibition at 1 μM); IC50 (ATF6; [12]): > 10 µM

Compound,IC50 (ATF6; [6]),inhibition at 1 µM (ATF6; [5]),further results
"CC(c1ccc(C(F)(F)F)cc1C(F)(F)F)n1cc(NC(=O)c2cc(-c3ccco3)on2)cn1 (stereo not drawn) [Compound 12, N-(1-{1-[2,4-bis(trifluoromethyl)phenyl]ethyl}-1H-pyrazol-4-yl)-5-(furan-2-yl) isoxazole-3-carboxamide]",< 1 µM,> 50%,"half-life at 1 μM ([1]; human liver microsomes, pH 7.4): 29.9 min; microsomal CLint at […], 1 µM [1, 7]: 46 µL/min/mg; Rem. @ hLM (%) [1]: 46.1%; half-life at […], 1 µM [2, 8]: 4.6 min; microsomal CLint at […], 1 µM [2, 9]: 302 µL/min/mg; Rem. @ mLM (%) [2]: 1.02%; microsomal CLint at […], 1 µM [3, 10]: 291 µL/min/mg; half-life at […], 1 µM [3, 11]: 4.8 min; Rem. @ rLM (%) [3]: 0.77%"

# Source: patent publication US20240124434A1, “ATF6 INHIBITORS AND USES THEREOF” (Altos Labs, Inc., priority 2018, published 2024)
